Experimental data from patent US10159663B2, “Substituted macrocycles useful as kinases inhibitors and methods of use thereof” (TELIGENE LTD., priority 2014, dated 2018).
≈ marks a conversion by molar mass, not a printed value. Where two headings read alike, the source gives them in different places.

Tests used:
CYP 3A4 = biological target: T1, CYP 3A4 (Homo sapiens, UniProt P08684); experiment: P450 3A4 assay in human liver microsomes; assay type: in vitro ADME; settings: for IC50: probe substrate testosterone
T1 construct: Incubation mixtures in duplicate contain pooled human liver microsome (0.1 mg/mL); from tissue; host or cells: pooled human liver microsomes
T1 sequence (P08684 whole entry): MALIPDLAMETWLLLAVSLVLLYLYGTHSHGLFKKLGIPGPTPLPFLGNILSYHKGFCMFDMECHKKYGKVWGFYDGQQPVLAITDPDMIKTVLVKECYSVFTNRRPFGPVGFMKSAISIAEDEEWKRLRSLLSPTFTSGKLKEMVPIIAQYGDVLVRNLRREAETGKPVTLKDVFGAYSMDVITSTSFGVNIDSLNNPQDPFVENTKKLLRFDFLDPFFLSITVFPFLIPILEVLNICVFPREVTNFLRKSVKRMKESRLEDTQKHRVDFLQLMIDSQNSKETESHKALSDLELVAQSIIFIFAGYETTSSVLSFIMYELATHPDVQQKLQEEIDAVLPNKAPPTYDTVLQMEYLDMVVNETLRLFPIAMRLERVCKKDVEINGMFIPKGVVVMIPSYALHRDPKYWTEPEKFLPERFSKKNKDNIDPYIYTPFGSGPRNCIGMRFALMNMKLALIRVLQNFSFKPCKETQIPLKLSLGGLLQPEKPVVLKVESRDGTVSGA
Protocol: The final concentrations of DMSO and acetonitrile were equal or less than 0.1%.
The column temperature was maintained at ambient temperature (25° C.). […] The flow rate was maintained at 0.6 mL/min.

[1] = Rate of metabolism in rat whole blood; assay type: in vitro ADME; settings: for rate of metabolism (k) in Rat whole blood: 1.0 μM, 37° C., 0-2 h
Protocol: A Representative Number of Compounds were Tested in Rat Whole Blood to Measure Rate of Metabolism.
Preparation of Stock Solutions: Stock solution of test compound was provided in 100% DMSO. The stock solution for each compound was diluted into 500 μM with a mixture of acetonitrile: PBS buffer (2:8) and then diluted into rat blood (pH 7.4) to achieve a final concentration of 1.0 μM.
Incubation: 1.0 μM of test compound in duplicate was incubated in blood at 37° C. Aliquots of 50 μL sample were collected at 0 h, 0.25 h, 0.5 h, 1 h, and 2 h.
Sample preparation: Reactions were terminated at various time points (0, 0.25, 0.5, 1, 2 h) by adding 150 μL of ice-cold acetonitrile containing an internal standard. Centrifuge the plate (4000 rpm, 15 min). 100 μL of supernatants were transferred into a daughter plate containing 200 μL of H2O and 0.1% formic acid (v/v) in each well. The samples were analyzed with UPLC-MS/MS.
Data analysis: The peak area ratio of test compound to internal standard is plotted as a percentage of the relevant zero time point control (% Remained) for each reaction. The rate of metabolism (k) is the slope of the linear regression from log percentage remaining versus incubation time. The T½ is calculated as −0.693/k.

[2] = Solubility measurement (HPLC); assay type: physicochemical; settings: for solubility at 30 min: aqueous buffer, thermodynamic from solid, 25° C.
Protocol: The compound was diluted with acetonitrile to 100 mL.
The solution was shook for 2 minutes and left for 30 minutes at 25° C. After standing for 30 minutes, precipitate was formed in the bottom of the EP. The solutions was filtered through 0.2 μm membrane filter, and then diluted by 50 times with water.
The standard and sample solutions were injected into the HPLC on a Shim-Pack CLC-ODS C18 column (150 mm×6.0 mm, 5 um) with the same volume. The mobile phase consisted of acetonitrile with 2% trichloromethane-20 mM KH2PO4 buffer (pH=7.0) at a flow rate of 1 mL/minutes (40:60). The detection wavelength is at 264 nm. Calculation: solubility of sample=the concentration of standard×Area of sample×50/Area of standard.

ERBB4 = biological target: T2, ERBB4 (Homo sapiens, UniProt Q15303); experiment: In vitro kinase assay (kinase-tagged phage, affinity beads, qPCR); assay type: binding; settings: Table A
T2 construct: made in house; host or cells: E. coli BL21-derived host (T7 phage) or HEK-293 cells
T2 sequence (Q15303 26-1308): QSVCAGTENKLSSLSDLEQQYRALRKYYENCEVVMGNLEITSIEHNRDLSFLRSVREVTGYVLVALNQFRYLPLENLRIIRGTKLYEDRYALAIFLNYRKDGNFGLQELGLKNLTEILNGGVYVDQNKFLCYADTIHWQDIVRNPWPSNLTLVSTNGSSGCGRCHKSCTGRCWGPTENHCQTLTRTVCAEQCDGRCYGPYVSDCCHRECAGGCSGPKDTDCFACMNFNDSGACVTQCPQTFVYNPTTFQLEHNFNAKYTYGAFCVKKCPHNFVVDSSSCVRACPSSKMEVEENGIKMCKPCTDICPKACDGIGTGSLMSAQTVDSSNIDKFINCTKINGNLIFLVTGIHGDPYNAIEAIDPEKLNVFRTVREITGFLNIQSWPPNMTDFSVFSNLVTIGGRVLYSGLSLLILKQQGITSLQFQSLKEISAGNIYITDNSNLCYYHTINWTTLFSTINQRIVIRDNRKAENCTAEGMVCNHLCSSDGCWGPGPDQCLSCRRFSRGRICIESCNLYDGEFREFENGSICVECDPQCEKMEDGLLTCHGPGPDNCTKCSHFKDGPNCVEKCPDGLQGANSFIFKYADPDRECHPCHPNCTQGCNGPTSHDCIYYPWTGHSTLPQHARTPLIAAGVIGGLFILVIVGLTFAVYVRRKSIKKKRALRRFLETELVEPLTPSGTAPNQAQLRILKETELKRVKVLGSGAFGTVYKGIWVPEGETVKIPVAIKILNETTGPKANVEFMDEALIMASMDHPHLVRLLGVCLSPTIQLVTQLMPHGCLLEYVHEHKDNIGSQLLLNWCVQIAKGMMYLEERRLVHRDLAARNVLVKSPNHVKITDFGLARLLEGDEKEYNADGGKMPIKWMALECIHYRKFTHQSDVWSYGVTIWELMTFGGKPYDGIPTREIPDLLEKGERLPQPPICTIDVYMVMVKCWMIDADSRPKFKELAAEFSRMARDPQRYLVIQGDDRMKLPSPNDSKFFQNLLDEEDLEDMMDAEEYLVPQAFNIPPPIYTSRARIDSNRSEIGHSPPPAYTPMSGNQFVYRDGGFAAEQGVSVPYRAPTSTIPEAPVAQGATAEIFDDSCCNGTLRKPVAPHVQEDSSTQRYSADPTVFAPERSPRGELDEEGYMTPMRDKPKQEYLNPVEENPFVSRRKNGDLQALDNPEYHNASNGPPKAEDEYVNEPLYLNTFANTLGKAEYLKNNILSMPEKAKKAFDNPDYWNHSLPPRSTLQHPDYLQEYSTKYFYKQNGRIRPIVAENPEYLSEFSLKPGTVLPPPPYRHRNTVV
Protocol: (§1) An In Vitro Assay which Determines the Ability of a Test Compound to Inhibit Kinase:
(§2) Kinase-tagged T7 phage strains were prepared in an E. coli host derived from the BL21 strain. E. coli were grown to log-phase and infected with T7 phage and incubated with shaking at 32° C. until lysis. The lysates were centrifuged and filtered to remove cell debris. The remaining kinases were produced in HEK-293 cells and subsequently tagged with DNA for qPCR detection. Streptavidin-coated magnetic beads were treated with biotinylated small molecule ligands for 30 minutes at room temperature to generate affinity resins for kinase assays. The liganded beads were blocked with excess biotin and washed with blocking buffer (SeaBlock (Pierce), 1% BSA, 0.05% Tween 20, 1 mM DTT) to remove unbound ligand and to reduce non-specific binding. […] All reactions were performed in polystyrene 96-well plates in a final volume of 0.135 ml. […] The kinase concentration in the eluates was measured by qPCR.

[3] = biological target: T3, EGFR(L747-E749del, A750P) (Homo sapiens, UniProt P00533, A750P/DEL747-749); experiment: as above; assay type: binding
T3 construct: made in house; host or cells: E. coli BL21-derived host (T7 phage) or HEK-293 cells
T3 sequence (P00533 with tags, fused parts or gaps DEL747-749/A750P): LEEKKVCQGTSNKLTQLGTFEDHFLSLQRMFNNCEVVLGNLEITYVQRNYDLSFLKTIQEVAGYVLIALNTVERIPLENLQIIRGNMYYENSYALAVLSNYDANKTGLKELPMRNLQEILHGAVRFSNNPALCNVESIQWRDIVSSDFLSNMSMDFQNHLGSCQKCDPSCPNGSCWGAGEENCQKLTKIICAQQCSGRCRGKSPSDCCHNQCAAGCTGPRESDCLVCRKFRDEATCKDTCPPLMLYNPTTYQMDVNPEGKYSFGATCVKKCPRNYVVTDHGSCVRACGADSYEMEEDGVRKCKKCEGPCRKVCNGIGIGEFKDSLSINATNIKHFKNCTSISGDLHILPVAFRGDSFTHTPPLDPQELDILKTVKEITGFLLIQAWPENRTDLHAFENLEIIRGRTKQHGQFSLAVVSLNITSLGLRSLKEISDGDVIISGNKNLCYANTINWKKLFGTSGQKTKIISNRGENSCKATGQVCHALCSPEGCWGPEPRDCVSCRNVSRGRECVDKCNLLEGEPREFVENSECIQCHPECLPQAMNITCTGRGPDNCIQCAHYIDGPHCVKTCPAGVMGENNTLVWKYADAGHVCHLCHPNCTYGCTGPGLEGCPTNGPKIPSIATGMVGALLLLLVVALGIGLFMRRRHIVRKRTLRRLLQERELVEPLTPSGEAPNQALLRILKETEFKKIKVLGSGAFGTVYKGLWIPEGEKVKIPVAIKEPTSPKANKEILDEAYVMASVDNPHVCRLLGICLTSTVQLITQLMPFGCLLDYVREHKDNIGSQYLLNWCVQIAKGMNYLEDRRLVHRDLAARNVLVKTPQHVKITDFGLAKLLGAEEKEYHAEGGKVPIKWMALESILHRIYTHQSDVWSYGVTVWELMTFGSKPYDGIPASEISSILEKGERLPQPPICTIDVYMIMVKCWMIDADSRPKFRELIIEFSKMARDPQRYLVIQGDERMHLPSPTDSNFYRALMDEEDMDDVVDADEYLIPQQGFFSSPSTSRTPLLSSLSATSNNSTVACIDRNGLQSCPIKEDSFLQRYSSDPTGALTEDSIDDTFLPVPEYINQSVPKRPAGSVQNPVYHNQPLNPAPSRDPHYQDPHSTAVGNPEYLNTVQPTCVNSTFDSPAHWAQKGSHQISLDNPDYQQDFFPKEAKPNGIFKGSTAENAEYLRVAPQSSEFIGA
Protocol: as §1, §2

NCI-H69 Cell = experiment: Cell proliferation assay (MTT); assay type: cell-based; settings: Homo sapiens, 72 hours treatment
Protocol: (§3) A Representative Number of Compounds were Assayed Against Different Cancer Cell Lines Such as HCC827 and NCI-H69 Using the Cell Proliferation Assays:
(§4) Cell Proliferation Assays:
(§5) 1. 5×10^3 cells per well in 100 μl of medium were seeded in 96-well plate, while the medium here contained 5% FBS.
(§6) 2. 24 hours later, 100 μl fresh medium was added with various concentrations of compounds into each well, while the medium here was free of FBS.
(§7) 3. After the cells were treated with compounds for 72 hours, 20 μl MTT (5 mg/ml) was added into each well, and then the assay plate was incubated at 37° C. for 4 more hours.
(§8) 4. The assay plate was centrifuged at 800 g for 10 min. The medium was aspirated, 150 μl DMSO was added into each well. The plate was gently shaken for 10 min.
(§9) 5. The absorbance at 570 nm was measured on the plate reader.

HCC827 Cell = experiment: Cell proliferation assay (MTT); assay type: cell-based; settings: Homo sapiens, 72 hours treatment
Protocol: as §3, §4, §5, §6, §7, §8, §9

[4] = pH 7.0 buffer solution (20 mM), pH 7.0 buffer (20 mM), read-out: Solubility at pH 7.0
[5] = pH 10.0 buffer solution (20 mM), pH 10.0 buffer (20 mM), read-out: Solubility at pH 10.0

rate of metabolism (k) in Rat whole blood [1] | Compound | Cytochrome P450 3A4 inhibition (DDI risk class) (CYP 3A4) | solubility at 30 min [2, 4] [µg/mL] | solubility at 30 min [2, 5] [µg/mL] | IC50 (CYP 3A4) [µM] | Kinase Inhibition ERBB4 (ERBB4) [µM] | inhibitor potency for mutant EGFR (L747-E749del, A750P) [3] [µM] | Kinase Inhibition EGFR(L747-E749del, A750P) ([3]; mutant EGFR, Table A) [µM] | IC50 (NCI-H69 Cell) [µM] | IC50 (HCC827 Cell) [µM] | K value compared with PF-06463922 and Compound 10 ([1]; rat whole blood, comparison in words) | solubility compared with compound A at pH=7.0 ([2]; pH 7.0, comparison in words)
−0.07473 | C[C@H]1Oc2cc(cnc2N)-c2c(nn(C)c2C#N)CN(C)C(=O)c2ccc(F)cc21 [Compound A, (10R)-7-amino-12-fluoro-2,10,16-trimethyl-15-oxo-10,15,16,17-tetrahydro-2H-8,4-(metheno)pyrazolo[4,3-h][2,5,11]-benzoxadiazacyclotetradecine-3-carbonitrile, reference compound] | moderate (3 μM<IC50<10 μM CYP inhibition moderate) | 29 (≈ 71.4 µM) | 28 (≈ 68.9 µM) | – | – | – | – | – | – | – | –
0.07435 | CC(=O)Nc1ncc2cc1O[C@H](C)c1cc(F)ccc1C(=O)N(C)Cc1nn(C)c(C#N)c1-2 [Compound 10, (10R)-7-acetamido-12-fluoro-2,10,16-trimethyl-15-oxo-10,15,16,17-tetrahydro-2H-8,4-(metheno)pyrazolo[4,3-h][2,5,11]-benzoxadiazacyclotetradecine-3-carbonitrile] | – | – | – | 14 | – | – | – | – | – | – | –

Compound | rate of metabolism (k) in Rat whole blood [1] | Cytochrome P450 3A4 inhibition (DDI risk class) (CYP 3A4) | solubility at 30 min [2, 4] [µg/mL] | solubility at 30 min [2, 5] [µg/mL] | IC50 (CYP 3A4) [µM] | Kinase Inhibition ERBB4 (ERBB4) [µM] | inhibitor potency for mutant EGFR (L747-E749del, A750P) [3] [µM] | Kinase Inhibition EGFR(L747-E749del, A750P) ([3]; mutant EGFR, Table A) [µM] | IC50 (NCI-H69 Cell) [µM] | IC50 (HCC827 Cell) [µM] | K value compared with PF-06463922 and Compound 10 ([1]; rat whole blood, comparison in words) | solubility compared with compound A at pH=7.0 ([2]; pH 7.0, comparison in words)
C[C@H]1Oc2cc(cnc2NC(=O)CN)-c2c(nn(C)c2C#N)CN(C)C(=O)c2ccc(F)cc21 [Compound 6, (10R)-7-(2-aminoacetyl)amino-12-fluoro-2,10,16-trimethyl-15-oxo-10,15,16,17-tetrahydro-2H-8,4-(metheno)pyrazolo[4,3-h][2,5,11]-benzoxadiazacyclotetradecine-3-carbonitrile] | 0.6169 | – | 91 (≈ 196 µM) | 36 (≈ 77.7 µM) | 10 | 5.7 | 0.42 | 0.4 | 77.1 | 65.6 | much larger K value | much higher solubility
